In patent US20230346815A1, “LMP7-SELECTIVE INHIBITORS FOR THE TREATMENT OF BLOOD DISORDERS AND SOLID TUMORS” (Merck Patent GmbH, priority 2020, published 2023):
“Also recorded” adds a separate entry of the source.

Experiments:
LMP7 [1] = molecular target: T1, LMP7 (Homo sapiens, UniProt P20618+P28062); assay: LMP7 activity in MM.1S xenograft tumors in vivo, cleavage of (Ac-ANW)2R110; design: from tissue; host or cells: MM.1S xenograft tumor lysate (tumors grown in mice); species or system mouse; details: compound 9 applied once per os 10 mg/kg, vs control and bortezomib, carfilzomib, ixazomib single dose, FIG. 6
Procedure: MM.1S xenograft tumors were established as described in Example 4. Compound 9, bortezomib, carfilzomib and ixazomib were formulated as described in Example 1. Compound 9 was applied once per os to mice at a dose of 10 mg/kg. Bortezomib was applied once i.v. to mice at a dose of 0.5 mg/kg. Ixazomib was applied once per os to mice at a dose of 3 mg/kg. Carfilzomib was applied once i.v. at a dose of 3 mg/kg. MM1S tumors were collected immediately following mouse euthanasia and lysed as described previously (Buchstaller et al., 2019). For assessment of LMP7 activity, 10 μg of tumor lysate protein in a total volume of 50 μL was mixed in 96-well plates with 50 μl of a buffer containing 100 mM HEPES pH 7.6, 60 mM MgSO4, 1 mM EDTA, 40 μg/ml digitonin and the fluorogenic LMP7 substrate (Ac-ANW)2R110 (from Biomol) at a final concentration of 10 μM. Plates were then shaken briefly, incubated for 60 min at 37° C. and then centrifuged at 300×g. Fluorescence (excitation 485 nm, emission 535 nm) was measured using an EnVision 2104 plate reader (PerkinElmer).

OPM-2 = assay: Efficacy in the multiple myeloma xenograft model OPM-2; type: in vivo, mouse; details: t(4;14)-positive OPM-2 xenograft; compound 9 10 mg/kg per os once daily; vs bortezomib 0.5 mg/kg i.v., ixazomib 3 mg/kg per os, carfilzomib 2 mg/kg i.p., each twice per week; FIG. 1
Procedure: The human multiple myeloma cell line OPM-2 was obtained from the German Collection of Microorganisms and Cell Cultures GmbH (DSMZ). 100 μL of a suspension of 5 million cells in phosphate-buffered saline (PBS) mixed 1:1 with Matrigel (Becton Dickinson) was injected per mouse. Bortezomib was formulated in Mannitol (Merck KGaA) in 0.9% NaCl and applied intravenously (i.v.) to mice at a dose of 0.5 mg/kg twice per week. Ixazomib was formulated in 5% KLEPTOSE® in water and applied orally (per os) to mice at a dose of 3 mg/kg twice per week. Carfilzomib was formulated in 5% KLEPTOSE® (AppliChem) in 50 mM sodium citrate buffer and applied by intraperitoneal (i.p.) injection to mice at a dose of 2 mg/kg twice per week. Compound 9 was formulated in 0.5% METHOCEL™ Premium K4M (Colorcon) and 0.25% Tween® 20 in PBS at applied per os to mice once daily at a dose of 10 mg/kg. Mean tumor volume and standard error of the mean (SEM) are indicated.

RPMI 8826 = assay: Efficacy in the multiple myeloma xenograft model RPMI 8826; type: in vivo, mouse; details: t(14;16)-positive RPMI 8826 xenograft; compound 9 10 mg/kg per os once daily; vs bortezomib, carfilzomib, ixazomib; FIG. 5
Procedure: The human multiple myeloma cell line RPMI 8826 was obtained from the ATCC. 100 μL of a suspension of 5 million cells in PBS mixed 1:1 with Matrigel was injected per mouse. Bortezomib, carfilzomib, ixazomib and compound 9 were formulated and applied as described in Example 1.

MM.1S = assay: Efficacy in the multiple myeloma xenograft model MM.1S; type: in vivo, mouse; details: t(14;16)-positive MM.1S xenograft; compound 9 10 mg/kg per os once daily; vs bortezomib, ixazomib, carfilzomib 3 mg/kg i.v. twice per week; FIG. 4
Procedure: The human multiple myeloma cell line MM.1S was obtained from the ATCC. 100 μL of a suspension of 5 million cells in PBS was injected per mouse. Bortezomib, ixazomib and compound 9 were formulated and applied as described in Example 1. Carfilzomib was formulated as described in Example 1 and applied intravenously (i.v.) to mice at a dose of 3 mg/kg twice per week.

Caspase-3/-7 activity = assay: Caspase 3/7 activity in MM.1S xenograft tumors in vivo; design: species or system mouse; details: compound 9 applied once per os 10 mg/kg, vs vehicle control and bortezomib, carfilzomib, ixazomib single dose, FIG. 7
Procedure: MM.1S xenograft tumors samples from the same experiment described in Example 6 were used for assessment of Caspase-3/-7 activity as an indication of tumor cell apoptosis. 50 μg of tumor lysate protein in a total volume of 50 μL was mixed with the Caspase-Glo®3/7 Reagent (Promega) in 96-well plates according to the manufacturer's instruction. Luminescence was measured using an Envision 2104 plate reader (PerkinElmer).

NCI-H929 = assay: Efficacy in the multiple myeloma xenograft model NCI-H929; type: in vivo, mouse; details: t(4;14)-positive NCI-H929 xenograft, compound 9 10 mg/kg per os once daily
Procedure: The human multiple myeloma cell line NCI-H929 was obtained from the American Type Culture Collection (ATCC). 100 μL of a suspension of 5 million cells in PBS mixed 1:1 with Matrigel was injected per mouse. Bortezomib, carfilzomib and compound 9 were formulated and applied as described in Example 1. Mean tumor volume and SEM are indicated.
NCI-H929 xenograft tumors were established as described in Example 2. Compound 9 and ixazomib were formulated and applied as described in Example 1.

LMP7 [2] = molecular target: T1, LMP7; details: as previously described, Singh et al., 2011; cited from earlier work

| Structure (SMILES) | LMP7 activity in tumor lysate (LMP7 [1]) | in vivo anti-tumor activity (mean tumor volume) (OPM-2) | in vivo anti-tumor activity (mean tumor volume) (RPMI 8826) | in vivo anti-tumor activity (mean tumor volume) (MM.1S) | Caspase-3/-7 activity (induction of apoptosis) in tumor lysate (Caspase-3/-7 activity) | in vivo anti-tumor activity (mean tumor volume) (NCI-H929; vs bortezomib and carfilzomib, FIG. 2) | in vivo anti-tumor activity (mean tumor volume) (NCI-H929; vs ixazomib 3 mg/kg per os twice per week, FIG. 3) | LMP7 selectivity (LMP7 [2]) |
| --- | --- | --- | --- | --- | --- | --- | --- | --- |
| O=C(N[C@@H](Cc1coc2ccccc12)B(O)O)[C@@H]1C[C@H]2CC[C@@H]1O2 [Compound 9, [(1R)-2-(1-benzofuran-3-yl)-1-{[(1S,2R,4R)-7-oxabicyclo[2.2.1]heptan-2-yl]formamido}ethyl]boronic acid] | stronger and more prolonged than for the other pan-proteasome inhibitors tested; also recorded: significant reduction of enzymatic function of LMP7 | increased efficacy as compared to bortezomib, carfilzomib, and ixazomib | increased in vivo activity of compound 9 as compared to ixazomib and carfilzomib, and comparable activity when compared to bortezomib | increased anti-tumor activity of compound 9 as compared to bortezomib and carfilzomib, and comparable activity as compared to ixazomib | longer than compared to the pan-proteasome inhibitors; also recorded: significant induction of apoptosis | increased efficacy as compared to bortezomib and carfilzomib | comparable activity of compound 9 as compared to the pan-proteasome inhibitor ixazomib |  |
| CC1=C(C(=O)N[C@H](C)C(=O)N[C@@H](Cc2c[nH]c3ccccc23)C(=O)N[C@@H](Cc2ccccc2)C(=O)[C@@]2(C)CO2)Cc2ccccc21 [PR-924] |  |  |  |  |  |  |  | 100 fold |
